Experiments:
Format in all cases: cell-based
[1] = tested on: insulin-secreting pancreatic beta cells; test: Pancreatic beta cell viability / apoptosis after streptozotocin challenge
From the text: Data are presented as mean±standard error.

[2] = tested on: retinoic acid receptor (RAR); test: RAR luciferase reporter in transfected 3T3-L1 preadipocytes; settings: ABA 10 μM with retinoic acid 10 μM
Experimental: A pCMX.L-RXR or pCMX.RAR expression plasmid and a luciferase reporter plasmid were purified using Qiagen's Maxi kit (Valencia, Calif.). 3T3-L1 preadipocytes (American Type Culture Collection, Manassas, Va.) were grown in DMEM high glucose medium (Invitrogen, Carlsbad, Calif.) containing 10% fetal bovine serum (FBS). The cells cultured in 25 cm^2 flasks were co-transfected with 0.6 ug plasmid DNA and 1 ng of pRL reporter control plasmid per well using F-2 transfection reagents (Targeting Systems, Santee, Calif.) according to the manufacturer's protocol. After 24 hours, transfected cells were split trypsin and seeded into 96-well white plates at a concentration of 20,000 cells/wells. The transfected cells were then treated with 9-cis retinoic acid (0, 10 μM; Sigma), or retinoic acid (RA, 10 μM; Sigma), with ABA (10 μM; Sigma) Transfected cells were harvested in reporter lysis reagent. Luciferase activity, normalized to pRL activity in the cell extracts was determined by using the dual luciferase reporter assay system (Promega, Madison, Wis.) in a Modulus 96-well plate reader (Turner Biosystems, Sunnyvale, Calif.). Relative luciferase activity (RLA) was calculated as a ratio of the chemiluminescence 10 seconds after the Luciferase Assay Reagent II (Promega) was added over the chemiluminescence 10 seconds after the Stop&Glo Reagent (Promega).

[3] = molecular target: T1, PPAR γ (Mus musculus, UniProt P37238); test: PPAR γ reporter activity assay in 3T3-L1 preadipocytes; settings: 6 hrs, Ros 1 μM, ABA 10 μM
T1 construct: expressed in transfected cells; host or cells: 3T3-L1 pre-adipocytes
T1 sequence (P37238 31-505 limits assumed): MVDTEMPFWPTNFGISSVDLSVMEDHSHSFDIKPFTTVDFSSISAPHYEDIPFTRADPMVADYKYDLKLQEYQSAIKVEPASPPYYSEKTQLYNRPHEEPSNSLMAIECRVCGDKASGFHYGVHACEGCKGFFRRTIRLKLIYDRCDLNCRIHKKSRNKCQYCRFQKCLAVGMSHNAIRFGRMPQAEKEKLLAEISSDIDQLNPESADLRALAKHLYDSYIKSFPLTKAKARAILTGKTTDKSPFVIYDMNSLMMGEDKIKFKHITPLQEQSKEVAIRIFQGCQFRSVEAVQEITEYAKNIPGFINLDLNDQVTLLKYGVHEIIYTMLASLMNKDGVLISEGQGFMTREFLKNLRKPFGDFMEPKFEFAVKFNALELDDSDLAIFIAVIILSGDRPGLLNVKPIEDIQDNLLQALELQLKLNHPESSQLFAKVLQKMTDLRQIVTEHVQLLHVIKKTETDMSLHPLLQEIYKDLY
Experimental: For 3T3-L1 preadipocytes cells were treated for 6-h with vehicle (DMSO) or Ros (1 μM) with ABA (10 μM), the cAMP-inhibitor 2′5′ dideoxyadenosine (dideoxy, 10 μM), or 14-22 myristolated PKA inhibitor fragment (PKAi, 30 μM). […] Luciferase activity was normalized to pRL activity in the cell extracts and relative luciferase activity was calculated a ratio of the activity in the treatment wells to control wells. Data are represented as mean±standard error.
A pCMX.PPAR γ expression plasmid and a pTKPPRE3x luciferase reporter plasmid driven by the PPRE-containing Acyl-CoA oxidase promoter (kindly provided by Dr. R M. Evans, The Salk Institute, San Diego, Calif.) were purified using Qiagen's Maxi kit (Valencia, Calif.). […] Cells were co-transfected in the […] with 1.5 μg plasmid DNA and 25 ng of pRL reporter control using F-2 transfection reagents (Targeting Systems, Santee, Calif.) according to the manufacturer's protocol. […] Cells were then treated in replicates of 8 with vehicle (DMSO), rosiglitazone (1 or 10 μM; Cayman Chemicals, Arm Arbor, Mich.), or ABA (10 μM; Sigma) with and without 2′5′ dideoxyadenosine (10 μM; Sigma) and 14-22 myristolated PKA inhibitor fragment (PKAi, 30 μM; Sigma). […] Luciferase activity, normalized to pRL activity in the cell extracts was determined by using the Dual Luciferase II reporter assay system (Promega, Madison, Wis.) using a Modulus 96-well luminometer (Turner Biosystems, Sunnyvale, Calif.). All values were normalized to control wells to calculate relative luciferase activity.

[4] = tested on: human aorta endothelial cells (HAECs); test: Nitric oxide assessment in HAECs; settings: 15 min treatment, beginning at 0.1 uM ABA
Experimental: Confluent human aorta endothelial cells (HAECs) were serum-starved using HBSS buffer for 30 min, then stimulated with various concentration of ABA and Forskolin (1 uM) for 5 min, after removing supernatant, cells were lysed with 0.1 M HCL to measure non-acetylated cAMP using a commercially available kit (Cayman chemical) following the manufacturer's instructions. Results (pmol/mL) were obtained from four independent experiments. For nitric oxide (NO), confluent HAECs were serum-starved for 30 min by using HBSS buffer, then treated with ABA for 15 min. Supernatant was used to measure NO using an fluorescent kit.

CC1=CC(=O)CC(C)(C)C1(O)/C=C/C(C)=C\C(=O)O (racemic) [ABA, abscisic acid]
viability of insulin-secreting pancreatic beta cells ([1]; ABA 1 and 10 micromolar, streptozotocin (STZ) 2 mM for 24 hours): increases | pancreatic beta cell apoptosis caused by streptozotocin ([1]; FIG. 4): diminishes | activity of RAR ligands [2]: synergistically enhances | PPAR γ activity [3]: increased | nitric oxide production [4]: significantly increased
